In the supplement of paper PMC8671470:
Structures can show the parent of a compound that is named as a salt.

Key:
Conditions in all cases: 72 h
[1] = test system: myeloid leukemia patient primary cells Pat.10; test: cell viability (% survival relative to DMSO control); higher = less cytotoxic
Outline: (§1)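 Seventy compounds were pre-printed on 384-well plates at five tenfold concentrations between 1 and 10,000 nM, in duplicate. Thawed mononuclear cells purified by Ficoll from AML or CML patients were added at 10,000 cells/well in RPMI 1640 with 10% FBS for 72 h. Viability by CellTiter-Glo was normalised to DMSO and 10 μM proteasome-inhibitor wells. Where stated, area under the curve was taken from log-logistic fits made with the drc and PharmacoGx R packages, each fit having four parameters.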

[2] = test system: myeloid leukemia patient primary cells Pat.9; test: as above
Outline: as §1

[3] = test system: myeloid leukemia patient primary cells Pat.15; test: as above
Outline: as §1

[4] = test system: myeloid leukemia patient primary cells Pat.8; test: as above
Outline: as §1

[5] = test system: myeloid leukemia patient primary cells Pat.5; test: as above
Outline: as §1

[6] = test system: myeloid leukemia patient primary cells Pat.13; test: as above
Outline: as §1

[7] = test system: myeloid leukemia patient primary cells Pat.14; test: as above
Outline: as §1

[8] = test system: myeloid leukemia patient primary cells Pat.6; test: as above
Outline: as §1

[9] = test system: myeloid leukemia patient primary cells Pat.12; test: as above
Outline: as §1

[10] = test system: myeloid leukemia patient primary cells Pat.7; test: as above
Outline: as §1

[11] = test system: myeloid leukemia patient primary cells Pat.3; test: as above
Outline: as §1

[12] = test system: myeloid leukemia patient primary cells Pat.11; test: as above
Outline: as §1

[13] = test system: myeloid leukemia patient primary cells Pat.2; test: as above
Outline: as §1

[14] = test system: myeloid leukemia patient primary cells Pat.1; test: as above
Outline: as §1

[15] = test system: myeloid leukemia patient primary cells Pat.4; test: as above
Outline: as §1

SHI-1 = test system: SHI-1
Outline: (§2)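 The IC50 was read from log-logistic dose–response fits. Fifteen myeloid leukaemia lines were exposed for 72 h at 37 °C with 5% CO2 to five tenfold doses from 1 to 10,000 nM in duplicate. ATP luminescence, normalised to vehicle and to a 10 µM positive control, was fitted with four parameters.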

KG-1 = test system: KG-1
Outline: as §2

KU-812 = test system: KU-812
Outline: as §2

MV4-11 = test system: MV4-11
Outline: as §2

ML-2 = test system: ML-2
Outline: as §2

K-562 = test system: K-562
Outline: as §2

NOMO-1 = test system: NOMO-1
Outline: as §2

THP-1 = test system: THP-1
Outline: as §2

MOLM-13 = test system: MOLM-13
Outline: as §2

HL-60 = test system: HL-60
Outline: as §2

Mono-Mac-6 = test system: Mono-Mac-6
Outline: as §2

BV-173 = test system: BV-173
Outline: as §2

HEL = test system: HEL
Outline: as §2

LAMA-84 = test system: LAMA-84
Outline: as §2

CC(C)(Cc1ccccc1)NCC(O)c1ccc(O)c(NS(C)(=O)=O)c1 (centres undefined) [Zinterol hydrochloride]
cell viability [%]
Conditions | 1 nM | 10 nM | 100 nM | 1000 nM | 10000 nM
[1] | 61 | 94.8 | 38.2 | > 100 | > 100
[2] | 79.2 | 79.5 | 67.4 | 74.7 | 87.2
[3] | 87 | > 100 | 95.8 | 95.8 | 68.9
[4] | 88.5 | 96.4 | > 100 | 85.3 | 85.5
[5] | 17 | > 100 | 73 | 99.9 | 93.9
[6] | 96.7 | 99.8 | 92.6 | > 100 | > 100
[7] | 73.4 | 87.2 | 91.3 | 90.7 | 75.6
[8] | > 100 | > 100 | > 100 | > 100 | > 100
[9] | 90.2 | 98.3 | 93.9 | 99 | 97.5
[10] | 54.3 | > 100 | 76.6 | > 100 | > 100
[11] | 84.7 | > 100 | 93.4 | 90.2 | 87.3
[12] | 95.7 | > 100 | > 100 | 96.2 | > 100
[13] | 85.5 | 96.4 | 86 | 99.7 | 93
[14] | 89.4 | > 100 | 98.6 | 94.8 | > 100
[15] | 87.7 | 94.7 | 82.8 | 93.3 | 97.3

Conditions | IC50 (cell viability) [µM]
BV-173 | > 10
HEL | > 10
HL-60 | > 10
K-562 | > 10
KG-1 | > 10
KU-812 | > 10
LAMA-84 | > 10
ML-2 | > 10
MOLM-13 | > 10
MV4-11 | > 10
Mono-Mac-6 | 0.0976
NOMO-1 | > 10
SHI-1 | > 10
THP-1 | > 10
